Entries after “also recorded” stand apart in the source; their conditions may differ.
Legend:
[1] = tested on: NFTs and SPs (neurofibrillary tangles, β-amyloid senile plaques); test: [F-18]FDDNP PET, Logan plot relative distribution volume; assay type: in vivo, human; settings: cerebellum reference
Procedure: All scans were performed with ECAT HR or ECAT HR+ scanners (Siemens-CTI, Knoxville, Tenn.). The subjects were in the supine position with the imaging plane parallel to the orbito-meatal line and with their eyes open and ears unoccluded. A 20 min transmission scan was performed to correct PET data for radiation attenuation. 320-550 MBq of a PET tracer was injected as a bolus injection via the in-dwelling venous catheter, and the consecutive dynamic head PET scans were performed for 1 hour with [F-18]FDG or for 2 hours with [F-18]MPPF or with [F-18]FDDNP.
All PET scans were decay corrected and reconstructed using filtered-back projection (Hann filter, 5 mm FWHM) with scatter and attenuation correction. The resulting images contained either 47 contiguous slices with 3.4 mm plane-to-pane separation (EXACT HR) or 63 contiguous slices with the plane-to-plane separation of 2.42 mm (EXACT HR+).
Quantitation of [F-18]FDDNP data was performed using the Logan plot graphical analysis with the cerebellum as the reference region. Distribution volume ratio (DVR) parametric images were created as described elsewhere. ROIs were drawn bilaterally on the early frames of the dynamic PET scan (3 min to 6 min post-injection) using MRI as a guide bilaterally on the transaxial images on frontal lobe, on parietal lobe, on medial temporal lobe, and on lateral temporal lobe. In addition, a single ROI was placed on posterior cingulated gyrus. DV values for cortical regions were extracted from the [F-18]FDDNP DV parametric image using the above-described ROI set. DV values were determined for all 9 cortical ROIs and for cerebellum. Relative global neocortical [F-18]FDDNP distribution volume (global DVR) was determined by dividing the DV average value of the eight neocortical ROIs with the DV average value of cerebellar ROIs. In similar fashion, regional relative distribution volumes (DVRs) were determined for frontal, parietal, lateral temporal and medial temporal areas by dividing the DV average of both ROIs from the corresponding region with the DV average value of cerebellar ROIs. The posterior cingulated gyrus DVR was determined by dividing the cingulated gyrus DV value with the DV average value of cerebellar ROIs.

[2] = tested on: Tau aggregates and amyloid plaques; test: In vitro [F-18]FDDNP digital autoradiography on brain tissue slices; assay type: binding, human
Procedure: Two AD and three control brain samples were obtained at the time of autopsy from the Alzheimer's Disease Research Center at USC Keck School of Medicine, Los Angeles. Glass mounted whole-hemisphere brain cryosections (100 μm thick), cut at the level of hippocampus, were incubated with 1.85 MBq/mL of […] in 50 mM Tris buffer/saline (pH=7.4) for 2 hours at room temperature. The samples were exposed to β^+-sensitive phosphor storage plates for 60 min, scanned in with BAS 5000 Phosphorimager, and analyzed with MacBAS software provided with the instrument (Fuji Film Medical Systems USA, Stamford, Conn.). […] All values were normalized to the inner layer, known to be well preserved in AD (16). [F-18]FDDNP autoradiography was performed as described elsewhere (17). In brief, the de-fattened tissue slices were incubated with 0.37 MBq/mL of [F-18]FDDNP in 1% ethanol in normal saline for 25 min at room temperature followed by differentiation in 60% 2-methyl-2-butanol (3 min). The sections were exposed to β^+-sensitive phosphor storage plates for 60 min and scanned in with BAS 5000 Phosphorimager.

Q: How did the “FDDNP mean DVR ± 1 SD, Frontal Lobe” value ([1]; AD group) turn out when `CC(=C(C#N)C#N)c1ccc2cc(N(C)CC[18F])ccc2c1` [[F-18]FDDNP, 2-(1-{6-[(2-[F-18]fluoroethyl)(methyl)amino]-2-naphthyl}ethylidene)malononitrile] was run?
A: 1.11 ± 0.03

Q: And the “FDDNP mean DVR ± 1 SD, Global” value ([1]; AD group)?
A: 1.17±0.01

Q: What about the “FDDNP mean DVR ± 1 SD, Lateral Temporal Lobe” value ([1]; AD group) of the same compound?
A: 1.17 ± 0.03

Q: And the “FDDNP mean DVR ± 1 SD, Medial Temporal Lobe” value ([1]; AD group)?
A: 1.23 ± 0.04

Q: What about the “FDDNP mean DVR ± 1 SD, Parietal Lobe” value ([1]; AD group) of the same compound?
A: 1.17 ± 0.03

Q: And the “FDDNP mean DVR ± 1 SD, Posterior Cingulate Gyrus” value ([1]; AD group)?
A: 1.18 ± 0.06

Q: And the “FDDNP mean DVR ± 1 SD, Global” value ([1]; AD group, listed as FDDNP)?
A: 1.17 ± 0.01

Q: And the “FDDNP mean DVR ± 1 SD, Frontal Lobe” value ([1]; CTRL group)?
A: 1.05 ± 0.01

Q: And the “FDDNP mean DVR ± 1 SD, Global” value ([1]; CTRL group)?
A: 1.08±0.03

Q: And the “FDDNP mean DVR ± 1 SD, Lateral Temporal Lobe” value ([1]; CTRL group)?
A: 1.07 ± 0.03

Q: And the “FDDNP mean DVR ± 1 SD, Medial Temporal Lobe” value ([1]; CTRL group)?
A: 1.12 ± 0.05

Q: And the “FDDNP mean DVR ± 1 SD, Parietal Lobe” value ([1]; CTRL group)?
A: 1.07 ± 0.03

Q: What about the “FDDNP mean DVR ± 1 SD, Posterior Cingulate Gyrus” value ([1]; CTRL group) of the same compound?
A: 1.07 ± 0.05

Q: And the “FDDNP mean DVR ± 1 SD, Global” value ([1]; CTRL group, listed as FDDNP)?
A: 1.08 ± 0.03

Q: And the “FDDNP mean DVR ± 1 SD, Frontal Lobe” value ([1]; MCI group)?
A: 1.08 ± 0.01

Q: And the “FDDNP mean DVR ± 1 SD, Global” value ([1]; MCI group)?
A: 1.12 ± 0.01

Q: And the “FDDNP mean DVR ± 1 SD, Lateral Temporal Lobe” value ([1]; MCI group)?
A: 1.13 ± 0.03

Q: What about the “FDDNP mean DVR ± 1 SD, Medial Temporal Lobe” value ([1]; MCI group) of the same compound?
A: 1.19 ± 0.02

Q: What about the “FDDNP mean DVR ± 1 SD, Parietal Lobe” value ([1]; MCI group) of the same compound?
A: 1.09 ± 0.03

Q: What about the “FDDNP mean DVR ± 1 SD, Posterior Cingulate Gyrus” value ([1]; MCI group) of the same compound?
A: 1.12 ± 0.03

Q: What about the “[F-18]FDDNP binding to gray matter, autoradiography” value ([2]; AD tissue) of the same compound?
A: increased in the gray matter of temporal and limbic lobes; also recorded: strong [F-18]FDDNP binding to the gray matter in the temporal lobe and in cingulated gyrus

Q: And the “[F-18]FDDNP binding to gray matter, autoradiography” value ([2]; normal control brain samples)?
A: uniformly low; also recorded: none of the gray matter areas from the normal control brain samples showed [F-18]FDDNP binding above background levels in white matter
